What all share (format): cell-based, Staphylococcus aureus
In assay [1] the test system is S. aureus ATCC 43300. Kind of assay: Time-dependent bactericidal kinetic curve (time-kill). Conditions: 2× MIC, S. aureus ATCC 43300, start 1×10^5 CFU/mL, 37 °C, 250 rpm. How it is done:
The mixture was subsequently incubated in a shaker at 37 °C and 250 rpm. At predetermined intervals (0, 0.5, 1, 2, 4, 6, 10, 22, and 24 h), 100 μL aliquots were withdrawn and subjected to serial 10-fold dilutions before being plated for colony counting.

The test system of assay [2] is S. aureus ATCC 43300. Description: PAE assay. As to conditions: 2×MIC, 2 h exposure of 10^8 CFU/mL at 37 °C, 1000-fold dilution; time for tenfold increase of the colony count. The method, then:
The mixture was subsequently incubated for 2 h at 37 °C and 250 rpm. Upon completion of the incubation period, 50 µL of the solution was withdrawn and diluted 1000-fold by adding […] of pre-warmed MHB, which was designated as the 0 h time point. Subsequently, samples were collected at 0, 0.5, 1, 2, 4, 6, 8, 10, 12, and 24 h. Each sample was subjected to 10-fold serial dilutions before being plated, and colony counts were performed. PBS served as the negative control. The time required for the colony count in each treatment group to increase tenfold relative to the post-reconstruction baseline was determined as PAE.

Assay [3] relates to S. aureus ATCC43300. Description: SEM observation of bacterial morphology. As to conditions: 2×MIC, 2 h, 37 °C, 10^8 CFU/mL. How it is done:
This mixture was incubated at 37 °C for 2 h. The 0.01 M PBS (pH 7.4) served as the blank control. After being centrifugated at 4000 rpm for 5 min, the samples were carefully washed three times with 0.01 M PBS. Next, 1 mL of 2.5% glutaraldehyde was added to each sample and stored at 4 °C overnight. The samples were washed twice with distilled water and subsequently dehydrated through a series of ethanol solutions (50%, 70%, 85%, 95%, and 100%). Each sample received three treatments with 100% ethanol, followed by drying at the CO2 critical point, gold sputtering, and observation under a scanning electron microscope.

In assay [4] the test system is S. aureus ATCC43300. Description: Cell membrane integrity analysis (PI, flow cytometry). As to conditions: 2×MIC, 37 °C, 10^8 CFU/mL. The method, then:
The solution was incubated at 37 °C for 0.5, 1, 1.5, and 2 h, respectively, and 0.01 M PBS (pH 7.4) was used as a blank control. After the incubation periods, each sample was centrifugated at 4000 rpm for 5 min. Subsequently, 400 µL of the supernatant was removed, and 400 µL of sterile PBS was added. The samples were washed twice and then resuspended with PBS to a final volume of 450 µL. A 50 µL volume of PI staining solution (500 µg/mL) was added, and the samples were incubated for 15 min in the dark. Finally, the cells fixed with PI were analyzed using flow cytometry.
A general note: Flow cytometry measures light scatter and fluorescence of single cells or particles in a stream.

Assay [5] deals with S. aureus ATCC 43300. Kind of assay: Membrane potential (DiSC3(5)). Conditions: DiSC3(5) fluorescence, 1×, 2×, 4× MIC, 30 min, 37 °C, three replicates. How it is done: The fluorescent probe DiSC3(5) (0.5 mM) was co-incubated with PBS (10^8 CFU/mL) of S. aureus for 30 min at 37 °C. A total of 180 µL of bacteria carrying fluorescent probes and 20 µL of peptide solution at varying concentrations were added to 96-well plates and incubated for 30 min at 37 °C. The sample treated with PBS served as the negative control, and each concentration was set as three replicates. The alterations in fluorescence (excitation wavelength: 620 nm, emission wavelength: 670 nm) were monitored in real time over a period of 30 min using a multifunctional enzyme-labeling instrument.

Take `CC1COc2c(N3CCN(C)CC3)c(F)cc3c(=O)c(C(=O)O)cn1c23` (centres unmarked) [ofloxacin, Ofloxacin]: in the assay with S. aureus ATCC 43300 [1], the “bacterial count at 6 h” value stood at 2 log10 CFU/mL. For the same compound, in the assay on S. aureus ATCC 43300 [1], the “bacterial count at 24 h” value turned out to be 4.15 log10 CFU/mL. Further, the “post-antibiotic effect (PAE)” value in the assay with S. aureus ATCC 43300 [2] is reported as 0.77 h. Moreover, the “morphological changes of the bacteria by SEM” value with S. aureus ATCC43300 [3] is “crumpled appearance with leakage of intracellular contents”. The figures for the “membrane penetration rate (PI-positive bacteria)” value with S. aureus ATCC43300 [4] (1 h), with S. aureus ATCC43300 [4] (1.5 h) and with S. aureus ATCC43300 [4] (2 h) were 0.26%, 0.7% and 1.13%, respectively.
For nisin, the “effect on membrane potential” value with S. aureus ATCC 43300 [5] is recorded as “depolarization”.

(Values after PMC11764660, “Self-Assembled Peptide Hydrogels PPI45 and PPI47: Novel Drug Candidates for Staphylococcus aureus Infection Treatment” (Gels, 2025).)
